Laboratory results published in paper PMC9220178, “Preclinical Characterization of Antioxidant Quinolyl Nitrone QN23 as a New Candidate for the Treatment of Ischemic Stroke” (Antioxidants, 2022).

Assays:
[1] = system: adult male Wistar rats, four-vessel occlusion (4VO) transient forebrain ischemia; experiment: Long-term neuronal viability by S6 protein immunostaining, hippocampal CA1; type: in vivo, rat; conditions: 2.0 mg/kg i.v. at reperfusion onset; 11 weeks of reperfusion
Procedure: Transient forebrain ischemia was induced in adult male Wistar rats (10–12 weeks, Charles River, L’Arbresle, France) by the standard four-vessel occlusion (4VO) model previously described. Briefly, animals were anesthetized by intraperitoneal injection of a combination of ketamine, diazepam, and atropine (62.5, 5.0, and 0.25 mg/kg, respectively); positioned in a stereotactic device; and both vertebral arteries were cauterized. The next day, anesthesia was induced with 4% isoflurane and maintained at 2–2.5% isoflurane for carotid artery dissection. After anesthesia withdrawal, the carotid arteries were occluded with an atraumatic vascular clamp to induce brain ischemia. During the entire surgical procedure, temperature was monitored at 2 min intervals and kept at 37 °C. After 15 min of ischemia, the carotid arteries were unclamped for brain reperfusion. The animals were studied after 5 days of reperfusion (R5d), or after 11 weeks of reperfusion (long-term studies), and then they were euthanized under deep anesthesia. Animals from the sham control group were handled in the same way, but without occlusion of the carotid arteries. Ischemic animals were treated with vehicle solution (ethanol/polyethylene glycol 400/saline, 1:300:200 v/v), or with nitrones QN23 or NXY-059 in vehicle solution, as a single injection through the tail vein at the onset of reperfusion. […]

[2] = system: male Wistar rats, transient middle cerebral artery occlusion (tMCAO); experiment: Neurofunctional score in transient focal cerebral ischemia (tMCAO); type: in vivo; conditions: for Neurofunctional impairment compared with vehicle: 24 h and 48 h
Procedure: For the transient focal cerebral ischemia experimental model we used 12-week-old male Wistar rats (300–350 g, Charles River), housed under standard conditions with food and water ad libitum. The animals were anesthetized by an intraperitoneal injection of a mixture of 100 mg/kg ketamine, 5 mg/kg diazepam, and 0.3 mg/kg atropine. Anesthesia was maintained during the surgical procedure by inhalation of 1–1.5% sevoflurane in 80% medicinal air plus 20% O2. For the transient occlusion of the right middle cerebral artery (tMCAO, 60 min), we followed the intraluminal suture procedure as originally described, adapted to our experimental setup. The procedure included continuous monitoring of cortical perfusion (CP, by Laser-Doppler flowmetry), arterial blood pressure, and core temperature, and discontinuous measurement of glycemia levels during preischemia (basal), ischemia, and reperfusion stages. Buprenorphine (subcutaneous, 0.05 mg/kg) was used as an analgesic. Forty-eight hours after the ischemic insult, the animals were euthanized by intracardiac injection of potassium chloride (200 mg/kg) under deep anesthesia, and the brains were obtained.
A power analysis (see above) provided a sample size of 6 subjects per group. A total of 35 animals was used in this study. The animals were randomly assigned to four experimental tMCAO groups, treated with (1) vehicle; (2) QN23, 1.5 mg/kg; (3) QN23, 2.5 mg/kg; and (4) QN23, 4 mg/kg. QN23 was dissolved in vehicle and injected through the femoral vein 20 min after the end of tMCAO. Nine animals were excluded from the study, based on predefined criteria, because of death within the first 24 h after the procedure (1 vehicle, 1 QN23-treated at 2.5 mg/kg, and 4 QN23-treated at 4.0 mg/kg) or due to no infarct after the procedure (1 vehicle, 1 QN23-treated at 1.5 mg/kg, and 1 QN23-treated at 2.5 mg/kg). Experiments were conducted in compliance with the legislation on the protection of animals used for scientific purposes in Spain (RD 53/2013) and the EU (Directive 2010/63/EU). […]
Twenty-four and 48 hours after the ischemic insult, the rats’ neurofunctional status was evaluated following the procedure previously reported. The severity of functional deficits was determined with the sum of the score of four tests assessing (a) spontaneous activity (moving/exploring = 0, no moving or moving only when pushed = 1), (b) circling to the left (none = 0, circling when elevated by the tail and pushed = 1, circling without displacement, spinning = 2), (c) parachute reflex: protective abduction of forelimbs (symmetrical = 0, asymmetrical, contralateral forelimb retracted = 1), and (d) resistance to left forepaw stretching (not allowed = 0, allowed = 1). […]

[3] = system: carrageenan-induced rat paw edema; parameters: method as in PMID 30715875; conditions: cited from earlier work

COc1ccc2nc(Cl)c(/C=[N+](\[O-])C(C)(C)C)cc2c1 [QN23, (Z)-N-tert-Butyl-1-(2-chloro-6-methoxyquinolin-3-yl)methanimine Oxide]
S6-positive cells (viable neurons) in hippocampal CA1 [1]: preserved a large number of viable neurons | Neurofunctional impairment compared with vehicle ([2]; 1.5 mg/kg and 2.5 mg/kg i.v. 20 min after end of tMCAO): significantly reduced | Animals that died within 24 h ([2]; 2.5 mg/kg i.v., tMCAO): one | Neurofunctional impairment compared with vehicle ([2]; 4 mg/kg i.v. 20 min after end of tMCAO): not at 4 mg/kg | Animals that died before 24 h ([2]; 4 mg/kg i.v., tMCAO): four | Anti-inflammatory activity [3]: showed anti-inflammatory properties
